Assay [1] has as its target acyl-CoA:cholesterol acyltransferase (ACAT). The assay can be described thus: Inhibition of Acyl CoA:Cholesterol Acyltransferase (ACAT) in Hepatic Microsomes. The class given is biochemical, rat (male Sprague Dawley). Conditions: rat hepatic microsomes, 75 μM 14C-oleoyl-CoA, pH 7.4, 37° C., 15 min preincubation, 10 min assay; read-out: IC50 In Vitro ACAT. The method, then: The ability of the compounds of this invention to inhibit ACAT, the enzyme responsible for the intracellular synthesis of cholesteryl esters, was tested as follows. Male Sprague Dawley rats weighing 150-300 g were fed rat chow ad libitum. The animals were fasted for twenty-four hours prior to being sacrificed by decapitation. The livers were perfused in situ with 50 ml of cold 0.25 M sucrose, excised, and homogenized in three volumes of 0.1 M phosphate buffer, pH 7.4 containing 0.5 mM EDTA (ethylenediaminetetraacetic acid), 1.0 mM glutathione, 0.25 M sucrose and 20 μM leupeptin. Microsomes were obtained by differential centrifugation; the supernatant from an initial spin at 15,000×g. for 15 minutes (which removed cell debris and mitochondria) was centrifuged at 105,000×g. for 1 hr to pellet the microsomes. The microsomes were suspended in homogenization buffer reisolated by centrifugation and stored at -70° C. Microsomes were used within one month of preparation.
The control assay in a final volume of 200 μl consisted of 200 μg of microsomal protein, 75 μM ^14 C-oleoyl-CoA (10,000 dpm/nmol) in 0.1 M phosphate, pH 7.4 containing 1 mM glutathione. Compounds were added in 5-10 μl of DMSO (dimethyl sulfoxide) and additional controls were run with DMSO only. All components, except the radiolabeled oleoyl-CoA, were preincubated for 15 min at 37° C. prior to the initiation of the reaction by addition of radiolabeled oleoyl-CoA. The assay was terminated after 10 min by the addition of 500 μl of hexane: isopropanol (3:2, v/v). 20,000 dpm of ^3 H-cholesteryl oleate and 10 μg of unlabeled cholesteryl oleate and oleic acid were added as an internal standard and carriers, respectively. After allowing 10 min for lipid extraction, the samples were centrifuged at 1,000×g for 10 mins to separate the solvent layers. 200 μl of the top (hexane) layer containing the neutral lipids was spotted onto a Baker SI250-Pa silica gel TLC plate and the plate developed using a hexane: diethyl ether: acetic acid (170:30:1 v/v/v) mobile phase. The lipids were visualized by their interaction with iodine vapor and the cholesteryl ester spot was scraped into a scintillation vial and the radioactivity on the gel was determined by standard liquid scintillation spectrometry. The specific activity of ACAT in control microsomes averaged 260 pmol/min/mg microsomal protein. The % inhibition of the various compounds was the ACAT activity in the presence of the inhibitor divided by the activity of the control (vehicle alone) times 100%-100.

Assay [2] deals with J774 cells. The assay can be described thus: Inhibition of Cholesterol Esterification in Mammalian Cells (macrophage-like cell line J774). In kind it is cell-based. Conditions: Mus musculus; murine macrophage-like cell line J774, +LDL (200 μg/ml), 14C-oleic acid incorporation into cholesteryl ester. The method, then: The esterification of cholesterol was determined in the murine macrophage-like cell line J774. J774 cells were placed in 60 mm dishes at a density of 200,000 cells per dish in 3.0 ml of Dulbecco's minimal essential medium (DMEM) containing 10% Fetal bovine serum. Cells were incubated at 37° C. in an atmosphere of 5% CO2 and 93% humidity. After 24 hr, the cells were washed with 2 ml of Hanks buffered saline and the media changed to 1.5 ml of DMEM containing 1% Cabosil® treated serum (CTS) to up-regulate LDL receptors. At 56 hr, fresh media that contained 1% CTS was added to the cells; in all but control dishes the media contained 200 μg LDL/ml to increase the intracellular concentration of cholesterol and promote esterification. At 72 hr, various inhibitors were added to the cells in DMSO (10 μl/ml maximum). At 74 hr, the cells were pulsed with 0.1 mM ^14 C-oleic acid (20,000 dpm/nmol) complexed with bovine serum albumin (BSA) to follow cholesteryl ester formation. The experiment was terminated at 76 hrs by washing the monolayers 3 times with 3 ml of Tris-buffered saline at 4° C. The lipids were extracted by incubating the monolayers with 1.5 ml of hexane: isopropanol (3:2, v/v) for 30 mins under gentle agitation. During this period, 20,000 dpm ^3 H-cholesteryl linoleate and 10 μg of cholesteryl oleate were added as an internal standard and carrier respectively. The organic solvent was removed and the cells were washed with an additional 1.0 ml of hexane: isopropanol which was combined with the original extract. The cells were allowed to dry overnight, digested with 1.5 ml of 0.2 N sodium hydroxide for 1 hr, and an aliquot of the solubilized protein used for protein determination using the Lowry method. The organic extract was taken to dryness, the residue resuspended in 100 μl of chloroform and the lipids separated on silica gel impregnated glass fiber plates using a hexane: diethyl ether: acetic acid (170:30:1, v/v/v) solvent system. The cholesteryl ester spot was visualized with iodine, cut out, and transferred to scintillation vials to determine the amount of radioactivity. The conversion of oleic acid to cholesteryl ester in the control averaged 0.54 nmol/hr/mg protein and was increased upon the addition of LDL to about 2.37 nmol/hr/mg protein. Inhibition of esterification by various compound was determined by dividing the specific activity (+LDL) in the presence of the inhibitor by the specific activity (+LDL) of the vehicle alone times 100% -100.

What is called IC50 is the point on the concentration scale where inhibition reaches its midpoint.

`O=C(O)CCCCCCCSc1nc(-c2ccccc2)c(-c2ccccc2)[nH]1` [Example 57, 8-(4,5-Diphenyl-1H-imidazol-2-ylthio)octanoic acid]: the concentration for half-maximal inhibition (IC50) in assay [1] stood at 2000 nM; in assay [2], 80 µM.
Turning to `CCOC(=O)CCCCCCCCCCSc1nc(-c2ccccc2)c(-c2ccccc2)[nH]1` [Example 2, 11-(4,5-Diphenyl-1H-imidazol-2-ylthio)undecanoic acid ethyl ester], the concentration for half-maximal inhibition (IC50) in assay [1] came to 1000 nM; in assay [2], 17 µM.
With `O=C(O)CCCCCCCOc1nc(-c2ccccc2)c(-c2ccccc2)n1-c1ccccc1` [Octimibate, reference compound], the IC50 in assay [1] amounted to 23000 nM; in assay [2], 78 µM.
In the same order, the values of `CCOC(=O)CCCCCCCSc1nc(-c2ccccc2)c(-c2ccccc2)[nH]1` [Example 1, 8-(4,5-Diphenyl-1H-imidazol-2-ylthio)octanoic acid ethyl ester] are 2000 nM and 19 µM.
For the molecule `O=C(O)CCCCCCCCCCSc1nc(-c2ccccc2)c(-c2ccccc2)[nH]1` [Example 58, 11-(4,5-Diphenyl-1H-imidazol-2-ylthio)undecanoic acid], the values for the IC50 in assay [1] and in assay [2] were 1000 nM and 17 µM, respectively.
